US20110020843A1, “LABEL-FREE METHODS RELATED TO PHOSPHODIESTERASES” (priority 2009, published 2011)

Columns and labels:
[1] = system: human lung carcinoma A549 cells; test: Label-free Epic biosensor DMR assay in A549 cells; type: cell-based; details: 10 micromolar, ultra-high confluent cells, 2 hrs in low CO2 (~2%) (FIG. 12B)
Procedure: 169. Cells were typically grown using ˜1 to 2×10^4 cells per well at passage 3 to 15 suspended in 50 μl of the corresponding culture medium in the biosensor microplate, and were cultured at 37° C. under air/5% CO2 for ˜1 day. Except for A431 which was subject to ˜20 hr starvation through continuously culture in the serum-free DMEM, the other cell types were directly assayed without starvation. The confluency for all cells at the time of assays was ˜95% to 100%.
177. Epic® wavelength interrogation system (Corning Inc., Corning, N.Y.) was used for whole cell sensing. This system consists of a temperature-control unit, an optical detection unit, and an on-board liquid handling unit with robotics. The detection unit is centered on integrated fiber optics, and enables kinetic measures of cellular responses with a time interval of ˜15 sec. The compound solutions were introduced by using the on-board liquid handling unit (i.e., pippetting).
190. Although we used A431 cells as a model, the disclosed methods are also applicable to other types.
191. To characterize the polypharmacology including PDE4 inhibitory activity of compounds, we used the known EGFR inhibitor tyrphostin 51 as an example. […] Next, one or more specific DMR parameters were chosen as a readout for plotting the DMR index of the molecule.

A549 cells = test: DMR modulation index against panel of markers in A549 cells; type: cell-based, human
Source text: 191. To characterize the polypharmacology including PDE4 inhibitory activity of compounds, we used the known EGFR inhibitor tyrphostin 51 as an example. Quiescent A431 and proliferating A549 cells were separately exposed to tyrphostin 51 at 10 micromolar for about 1 hr to generate its primary profiles, followed by stimulation with each marker at a fixed concentration for another 1 hr or so to generate secondary profiles of the tyrphostin 51 against the panels of markers in both types of cells. Next, one or more specific DMR parameters were chosen as a readout for plotting the DMR index of the molecule.
193. The second panel of markers was contacted with A549 cells at concentrations close to each of the marker's EC80 or EC100, and DMR measurements were obtained with and EPIC® system. This panel included poly(I:C), SLIGKV-amide, pinacidil, PMA, histamine, and forskolin. Each of these markers also leads to a wide array of cell signaling. Using Epic® cellular assays in conjunction with chemical biology and cell biology approach similar to the EGFR DMR mentioned above, we have determined the pathway(s) and network interaction(s) that is accounted for each marker-induced DMR signal in A549 cells. The main observations are summarized below. Poly(I:C) is an agonist for endogenous Toll-like receptor(s) in A549, whose activation leads to IKK pathway and AKT pathway. SLIGKV-amide is an agonist for endogenous protease activated receptor subtype 2 (PAR2) in A549, whose activation leads to Gq-, Gi- and G12/13-mediated signaling. Pinacidil is an opener for endogenous ATP-sensitive potassium (KATP) ion channel in A549, whose activation leads to Rho- and JAK-mediated signaling. PMA is an activator for protein kinase C(PKC), whose activation leads to PKC pathway and degranulation. Histamine is a natural agonist for endogenous histamine receptors (dominantly H1R, and possibly H3R), whose activation leads to dual signaling, possibly through Gq and Gi mediated signaling in A549. Forskolin is an activator for adenylyl cyclases, whose activation leads to cAMP-PKA pathway in A549. […] Each DMR signal represents an averaged response of 4 replicates.
194. For the pinacidil DMR response in A549, the amplitude of the N-DMR (i.e., the amplitude 30 min after stimulation) was chosen. For the poly(I:C) DMR response in A549, the amplitude of the late DMR (i.e., the amplitude 50 min after stimulation) was chosen. For the PMA response in A549, the late DMR amplitude (i.e., the amplitude 50 min after stimulation) was chosen. For the SLIGKV-amide DMR response in A549, the P-DMR amplitude (i.e., the amplitude 20 min after stimulation) was chosen. For the forskolin response in A549 cells, the P-DMR amplitude (i.e., the amplitude 50 min after stimulation) was chosen. For the histamine response in A549, both the early DMR amplitude (i.e., amplitude 10 min after stimulation) and the late response (i.e., the amplitude 30 min after stimulation) were chosen. For the epinephrine response in A431, the P-DMR amplitude (i.e., the amplitude 50 min after stimulation) was chosen. For the nicotinic acid DMR in A431, the P-DMR amplitude (i.e., the amplitude 3 min after stimulation) was chosen. For the EGF DMR in A431, both the P-DMR (i.e., the amplitude 4 min after stimulation) and N-DMR amplitudes (i.e., the decaying amplitude between 4 min and 40 min after simulation) were chosen. For the histamine response in A431, the P-DMR amplitude (i.e., the amplitude 3 min after stimulation) was chosen. The percentage of modulation of the marker against each marker was calculated by normalizing the secondary profile of the molecule against the marker in the cell to the primary profile of the same marker acting on the same cell.

[2] = 10 micromolar pretreatment ~1 hr

## N#CC(C#N)=C(N)/C(C#N)=C/c1cc(O)c(O)c(O)c1 [tyrphostin 51]
[1]
  primary DMR profile: closely resembled the classic Gs-DMR signals
A549 cells; [2]
  modulation of PMA DMR (late DMR amplitude 50 min): −6%
  modulation of SLIGKV-amide DMR (P-DMR amplitude 20 min): 0%
  modulation of forskolin DMR (P-DMR amplitude 50 min): −23%
  modulation of histamine early response (amplitude 10 min): +6%
  modulation of histamine late response (amplitude 30 min): 0%
  modulation of poly(I:C) DMR (late DMR amplitude 50 min): +5%
A549 cells; FIG. 12C
  effect of pretreatment on forskolin DMR signal: partially attenuated
A549 cells; tyrphostin 51 at 10 micromolar pretreatment ~1 hr
  modulation of pinacidil DMR (N-DMR amplitude 30 min): 0%
